A value given as a limit tells only on which side of the number the result lay.

The values that follow come from ChEMBL document CHEMBL4342439, “Targeting Stimulator of Interferon Genes (STING): A Medicinal Chemistry Perspective” (J Med Chem, 2020).

Test [1] deals with Stimulator of interferon genes protein (Homo sapiens, UniProt Q86WV6, G230A/R293Q/R71H). Kind of test: Displacement of [3H]-cGAMP from full length STING HAQ mutant in human THP1 cells by filtration binding assay. It is filed as cell-based.
Sequence of Stimulator of interferon genes protein (Homo sapiens, UniProt Q86WV6, G230A/R293Q/R71H) (Q86WV6 whole entry R71H/G230A/R293Q): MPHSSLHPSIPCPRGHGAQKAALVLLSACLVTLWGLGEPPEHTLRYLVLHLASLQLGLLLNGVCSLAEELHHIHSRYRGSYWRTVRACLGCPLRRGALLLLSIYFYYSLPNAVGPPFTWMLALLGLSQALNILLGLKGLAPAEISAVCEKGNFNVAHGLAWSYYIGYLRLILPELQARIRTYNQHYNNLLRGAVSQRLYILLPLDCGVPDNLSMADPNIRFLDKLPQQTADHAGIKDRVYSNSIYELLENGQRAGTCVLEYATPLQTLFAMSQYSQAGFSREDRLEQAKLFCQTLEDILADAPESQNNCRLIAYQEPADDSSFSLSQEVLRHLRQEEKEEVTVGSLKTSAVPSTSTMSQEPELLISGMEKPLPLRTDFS
A short description of test [2]: Binding affinity to human STING H232 mutant by ITC assay. A general note: Isothermal titration calorimetry measures the heat released or taken up as one component is titrated into another.
For test [3], the target named is T1, Stimulator of interferon genes protein (Homo sapiens, UniProt Q86WV6). Description: Inhibition of STING in human THP1 cells by IFN reporter gene assay. It is filed as cell-based. In general terms: Reporter assays use an easily measured gene product as a stand-in for the process of interest.
T1 sequence (Q86WV6 whole entry): as the sequence (Q86WV6 whole entry R71H/G230A/R293Q) above, with H71R, A230G, Q293R counted along it
Test [4] addresses T1, Stimulator of interferon genes protein. Kind of test: Inhibition of STING in human THP1 cells in presence of digitonin by IFN reporter gene assay. The class given is cell-based.
For test [5] the target is unchanged. Kind of test: Inhibition of wild type human STING by SPA assay.
Test [6] addresses T2, Stimulator of interferon genes protein (Mus musculus, UniProt Q3TBT3).
T2 sequence (Q3TBT3 whole entry): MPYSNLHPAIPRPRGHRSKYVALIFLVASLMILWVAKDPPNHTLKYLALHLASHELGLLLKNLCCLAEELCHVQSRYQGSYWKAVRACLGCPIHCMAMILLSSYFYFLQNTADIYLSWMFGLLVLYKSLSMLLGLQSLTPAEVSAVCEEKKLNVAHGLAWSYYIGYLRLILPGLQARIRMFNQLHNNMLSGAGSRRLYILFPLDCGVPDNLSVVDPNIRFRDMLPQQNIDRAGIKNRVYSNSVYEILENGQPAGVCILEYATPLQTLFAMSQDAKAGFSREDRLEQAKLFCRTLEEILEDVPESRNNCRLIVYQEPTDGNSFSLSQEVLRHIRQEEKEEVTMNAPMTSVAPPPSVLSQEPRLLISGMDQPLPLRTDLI
Kind of test: Binding affinity to mouse STING by ITC assay.

The target in test [7] is T1, Stimulator of interferon genes protein. Kind of test: Inhibition of STING in human THP1 cells in presence of PFO by IFN reporter gene assay. The class given is cell-based.
Test [8] has as its system Stimulator of interferon genes protein (Homo sapiens), Q86WV6 [R71H,G230A,R293Q]. Kind of test: Effect on full length STING HAQ mutant in human THP1 cells at 10 uM relative to 2',3- cGAMP. It is filed as cell-based.
Test [9] can be described thus: Inhibition of human STING H232 mutant by SPA assay.
In test [10] the target is T1, Stimulator of interferon genes protein. Kind of test: Displacement of [3H]-cGAMP from wild type human STING by filtration binding assay. For orientation: In a radioligand displacement assay an active substance lowers the binding of a labelled ligand.
The target of test [11] is T2, Stimulator of interferon genes protein. Kind of test: Displacement of [3H]-cGAMP from mouse STING by filtration binding assay.
Test [12] concerns the target T1, Stimulator of interferon genes protein. Kind of test: Inhibition of STING in human THP1 cells by R232 IRF-luciferase reporter gene assay. The class given is cell-based.
Test [13] shares this target. Kind of test: Inhibition of STING in human THP1 cells. The class given is cell-based.

Sequence of Stimulator of interferon genes protein (Homo sapiens), Q86WV6 [R71H,G230A,R293Q] (Q86WV6 whole entry R71H/G230A/R293Q): as the sequence (Q86WV6 whole entry R71H/G230A/R293Q) above

In general, EC50 refers to the concentration needed to bring the measured effect to its halfway point. For `COc1cc2cc(C(=O)CC(C)C(=O)O)sc2cc1OC` (configuration not stated), a half-maximal response in [1] (EC50) required 5550 nM.

`COc1cc2sc(C(=O)C[C@H](C)C(=O)O)cc2c2nc(C)oc12` yielded an EC50 in test [1] of 531 nM.

As to `COc1cc2sc(C(=O)[C@@H]3C[C@@H]3C(=O)O)cc2c(F)c1OC`, the EC50 in test [1] is 599 nM.

In test [1], `Nc1nc2c(ncn2[C@@H]2S[C@@H]3COP(=O)(O)O[C@H]4[C@@H](O)[C@H](n5cnc6c(N)ncnc65)O[C@@H]4COP(=O)(O)O[C@@H]2[C@@H]3O)c(=O)[nH]1` showed a 50% effective concentration (EC50) of 1.2 nM.

Turning to `Nc1nc2c(nnn2[C@@H]2O[C@@H]3COP(=O)(O)O[C@H]4[C@@H](O)[C@H](n5cnc6c(N)ncnc65)O[C@@H]4COP(=O)(O)O[C@@H]2[C@@H]3O)c(=O)[nH]1`, the EC50 in test [1] was under 1 nM.

The Kd is the concentration at which binding is half-saturated. Regarding `Nc1nc2c(ncn2[C@@H]2O[C@@H]3COP(=O)(O)O[C@@H]4[C@H](O)[C@@H](COP(=O)(O)O[C@@H]2[C@@H]3O)O[C@H]4n2cnc3c(N)ncnc32)c(=O)[nH]1`, binding in test [2] was put at a Kd of 2500 nM.

Take `COc1cc2cc(C(=O)CCC(=O)OC(C)(C)C)sc2cc1OC`: the midpoint of the response in test [1], the EC50, lay at 5990 nM.

In the case of `Nc1ncnc2c1ncn2[C@@H]1O[C@@H]2CO[P@@](=O)(S)O[C@@H]3[C@H](F)[C@@H](CO[P@@](=O)(S)O[C@H]2[C@H]1F)O[C@H]3n1cnc2c(N)ncnc21`, the EC50 in test [3] is 4500 nM; in test [4], 190 nM.

The IC50 is the point on the concentration scale where inhibition reaches its midpoint. Low values mean greater potency, high ones weaker potency. In test [5], `CCn1nc(C)cc1C(=O)/N=c1\[nH]c2cc(C(N)=O)ccc2n1C[C@@H](O)c1ccccc1` came in with an IC50 of 14000 nM.

In test [1], `Nc1nc2c(ncn2[C@@H]2O[C@@H]3COP(=O)(O)O[C@H]4[C@@H](O)[C@H](n5cnc6c(N)nc(F)nc65)O[C@@H]4COP(=O)(O)O[C@@H]2[C@@H]3O)c(=S)[nH]1` gave an EC50 of 1.7 nM.

The compound `COc1c(O)cc2oc3cc(O)c(CC=C(C)C)c(O)c3c(=O)c2c1CC=C(C)C` [MANGOSTIN] registered a Kd in [6] of 137000 nM.

As to `COc1cc2cc(C(=O)C[C@H](C)C(=O)O)sc2cc1OC`, in test [1], the EC50 amounted to 2740 nM.

Take `Nc1nc2c(ncn2[C@@H]2O[C@@H]3COP(=O)(O)O[C@H]4[C@@H](O)[C@H](n5cnc6c(N)nc(F)nc65)O[C@@H]4COP(=O)(O)O[C@@H]2[C@@H]3O)c(=O)[nH]1`: a half-maximal effect in test [1] (EC50) was put at 24.6 nM.

With `BP1(=O)OC[C@H]2O[C@@H](n3cnc4c(=O)[nH]c(N)nc43)[C@H](OP(=O)(O)OC[C@H]3O[C@@H](n4cnc5c(N)ncnc54)[C@H](O)[C@@H]3O1)[C@@H]2O` (some centres not stated), the EC50 was under 30000 nM in [3] and under 100 nM in test [7].

In the case of `NC[C@H]1[C@H]2OP(=O)(O)OC[C@H]3O[C@@H](n4cnc5c(N)ncnc54)[C@H](O)[C@@H]3OP(=O)(O)OC[C@H]1O[C@H]2n1cnc2c(=O)[nH]c(N)nc21`, the midpoint of the response in test [1], the EC50, lay at 21.5 nM.

As to `CCC[C@H]1[C@H]2OP(=O)(O)OC[C@H]3O[C@@H](n4cnc5c(N)ncnc54)[C@H](O)[C@@H]3OP(=O)(O)OC[C@H]1O[C@H]2n1cnc2c(=O)[nH]c(N)nc21`, the EC50 in [3] is at most 100 nM; in test [7] it was at most 30000 nM.

Regarding `C=C1[C@@H](n2cnc3c(N)ncnc32)[C@H](F)[C@@H]2O[P@@](O)(=S)OC[C@H]3O[C@@H](n4cnc5c(=O)[nH]c(N)nc54)[C@H](OP(O)(=S)OC[C@@H]12)[C@@H]3F` (some centres not stated), a half-maximal response in test [3] (EC50) required 740 nM. In test [8], this compound displayed an Activity of 430%.

Regarding `CCn1nc(C)cc1C(=O)/N=c1\[nH]c2cc(C(N)=O)cc(OC)c2n1C/C=C/Cn1/c(=N/C(=O)c2cc(C)nn2CC)[nH]c2cc(C(N)=O)cc(OCCCN3CCOCC3)c21`, the midpoint of the response in test [9], the EC50, lay at 200 nM.

Turning to `Nc1nc2c(ncn2[C@@H]2O[C@@]34CO[C@@H]2[C@@H]3O[P@](=O)(S)OC[C@@]23CO[C@@H]([C@H](n5cnc6c(N)ncnc65)O2)[C@@H]3O[P@](=O)(S)OC4)c(=O)[nH]1`, in [4], the EC50 is 19300 nM.

`COc1cc2cc(C(=O)C[C@H](C)C(=O)O)sc2cc1Br`: the EC50 in [1] is 894 nM.

In turn, `COc1cc2sc(C(=O)C[C@H](C)C(=O)O)cc2c(F)c1OC` showed an EC50 in test [1] of 1380 nM.

On to `COc1cc2sc(C(=O)[C@H]3C[C@H]3C(=O)O)cc2c(F)c1OC`, for which the EC50 in test [1] was 17800 nM.

In test [1], `COc1cc2cc(C(=O)CC(C(=O)O)C(C)C)sc2cc1OC` (configuration not stated) yielded an EC50 of 9590 nM.

`COc1c(Cl)ccc2c(=O)c3ccc(C(C)(C)C)cc3n(CC(=O)O)c12`: the IC50 was under 20000 nM in test [10], under 20000 nM in [11] and over 50000 nM in test [12].

On to `Nc1ncnc2c1ncn2[C@@H]1O[C@@H]2CO[P@@](=O)(S)O[C@@H]3[C@H](F)[C@@H](CO[P@@](=O)(S)O[C@H]2[C@H]1O)O[C@H]3n1cnc2c(N)ncnc21`, for which the figures for the EC50 in test [3] and in [4] were 11200 nM and 399 nM, respectively.

In test [3], `Nc1ncnc2c1ncn2[C@@H]1O[C@@H]2CO[P@@](=O)(S)O[C@@H]3C[C@@H](CO[P@@](=O)(S)O[C@H]2[C@H]1F)O[C@H]3n1cnc2c(N)ncnc21` came in with an EC50 of 10200 nM.

Turning to `BP1(=O)OC[C@H]2O[C@@H](n3cnc4c(N)ncnc43)[C@H](O)[C@@H]2OP(=O)(O)OC[C@H]2O[C@@H](n3cnc4c(=O)[nH]c(N)nc43)[C@H](O1)[C@@H]2O` (some centres not stated), the EC50 in test [3] was under 30000 nM; in test [7], under 100 nM.

Turning to `COc1cc2sc(C(=O)C[C@H](C)C(=O)O)cc2cc1Br`, a half-maximal response in test [1] (EC50) required 2640 nM.

In the case of `C#C[C@@H]1O[C@@H]2COP(=O)(S)O[C@H]3[C@@H](F)[C@H](n4cnc5c(N)ncnc54)O[C@@H]3COP(=O)(S)O[C@@H]1[C@@H]2O` (some centres not stated), in test [1], the EC50 was under 1 nM.

As to `COc1cc2cc(C(=O)CCC(=O)O)sc2cc1OC`, the response in [1] was half-maximal at 1720 nM (EC50).

In test [13], `Nc1ncnc2c1ncn2[C@@H]1O[C@@H]2CNC(=O)N[C@H]3[C@@H](O)[C@H](n4cnc5c(N)ncnc54)O[C@@H]3CNC(=O)N[C@H]2[C@H]1O` returned an EC50 of 25400 nM.

`Nc1ncnc2c1ncn2[C@@H]1O[C@@H]2CNC(=S)N[C@H]3[C@@H](O)[C@H](n4cnc5c(N)ncnc54)O[C@@H]3CNC(=S)N[C@H]2[C@H]1O` had an EC50 in test [13] of 22200 nM.

On to `Nc1nc2c(ncn2[C@@H]2O[C@@H]3CO[P@@](=O)(S)O[C@H]4[C@H]5OC[C@]4(CO[P@@](=O)(S)O[C@H]3[C@H]2O)O[C@H]5n2cnc3c(N)ncnc32)c(=O)[nH]1`, for which, in test [4], the EC50 was 5800 nM.

`CCn1nc(C)cc1C(=O)Nc1nc2cc(C(N)=O)ccc2n1CCCCn1c(NC(=O)c2cc(C)nn2CC)nc2cc(C(N)=O)ccc21` yielded an IC50 in [5] of 20 nM.
